Experimental data as given in BindingDB's records for doi:10.1124/jpet.104.069260 (University of Texas At Austin, 2004).

Biological target: Sodium-dependent serotonin transporter (Homo sapiens, UniProt P31645)
Sequence (P31645 whole entry): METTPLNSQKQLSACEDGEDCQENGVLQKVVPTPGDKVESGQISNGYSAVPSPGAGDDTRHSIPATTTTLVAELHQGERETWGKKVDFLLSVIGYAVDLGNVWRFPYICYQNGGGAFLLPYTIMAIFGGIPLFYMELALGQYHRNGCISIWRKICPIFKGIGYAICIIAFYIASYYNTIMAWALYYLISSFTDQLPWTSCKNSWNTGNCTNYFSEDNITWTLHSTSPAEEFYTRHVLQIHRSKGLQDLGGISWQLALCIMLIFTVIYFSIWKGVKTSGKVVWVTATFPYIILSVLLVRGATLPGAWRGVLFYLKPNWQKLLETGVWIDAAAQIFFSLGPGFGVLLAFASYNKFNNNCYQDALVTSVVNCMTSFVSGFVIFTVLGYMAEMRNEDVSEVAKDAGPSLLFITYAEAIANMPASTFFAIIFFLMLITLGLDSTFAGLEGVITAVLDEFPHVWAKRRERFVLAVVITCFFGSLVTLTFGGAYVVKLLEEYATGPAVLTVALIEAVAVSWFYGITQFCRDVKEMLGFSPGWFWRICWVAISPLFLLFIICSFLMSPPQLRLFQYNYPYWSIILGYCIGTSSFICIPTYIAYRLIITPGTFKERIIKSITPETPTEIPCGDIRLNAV

Question: With `CC(N)Cc1ccc2c(c1)OCO2` (configuration not stated) as the compound, how does the Ki read?
Answer: > 10 µM

Question: How did the Ki turn out when `CN[C@@H](C)Cc1ccc2c(c1)OCO2` [DL-(3,4-Methylenedioxy)methamphetamine] was run?
Answer: > 10 µM
